Assays:
Assay type in all cases: biochemical
[1] = biological target: T1, MMP2 (Homo sapiens, UniProt P08253); assay: MMP-2 colorimetric inhibition assay (Enzo kit); details: colorimetric thiopeptide substrate, absorbance 415 nm; read-out: MMP2 IC50 class
T1 construct: purchased Enzo Life Sciences, Inc. BML-AK408
Description: (§1) The inhibitory activities of the compounds of the invention were assessed in 96-well microplate format using MMP1, MMP2, MMP9 and MMP13 colorimetric assay kits and TACE fluorometric assay kit from Enzo Life Sciences, Inc. The inhibitory effect of the compounds of the invention on ADAM10 activity were evaluated in 96-well microplate format using fluorometric assay from AnaSpec, Inc.
(§2) The MMP-2 Colorimetric Drug Discovery Kit (catalog #BML-AK408) is a complete assay system designed to screen MMP-2 inhibitors using a thiopeptide as a chromogenic substrate (Ac-PLG-[2-mercapto-4-methylpentanoyl]-LG-OC2H5). The MMP cleavage site peptide bond is replaced by a thioester bond in the thiopeptide. Hydrolysis of this bond by an MMP produces a sulfhydryl group, which reacts with DTNB [5,5′-dithiobis(2-nitrobenzoic acid), Ellman's reagent] to form 2-nitro-5-thiobenzoic acid, that can be detected spectrophotometrically.
(§3) The inhibitory activities of the compounds of the invention against MMP1, MMP2, MMP9 and MMP13 were tested according to the manufacturer's assay protocols and the absorbance at 415 nm was monitored using the Tecan Infinite® 200 Pro F Nano^+ microplate reader.
(§4) The normalized values were analyzed using GraphPadPrism 9 for Windows (GraphPad Software, San Diego, CA, USA) software by plotting inhibition curves and determining the IC50 values.
(§5) The calculated IC50 values were divided into the following classes: • A: <50 nM; B: 50-1000 nM; C: >1000-10,000 nM; D: >10,000 nM

[2] = biological target: T2, MMP9 (Homo sapiens, UniProt P14780); assay: MMP-9 colorimetric inhibition assay (Enzo kit); details: colorimetric thiopeptide substrate, absorbance 415 nm; read-out: MMP9 IC50 class
T2 construct: purchased Enzo Life Sciences, Inc. BML-AK410
T2 sequence (P14780 94-707): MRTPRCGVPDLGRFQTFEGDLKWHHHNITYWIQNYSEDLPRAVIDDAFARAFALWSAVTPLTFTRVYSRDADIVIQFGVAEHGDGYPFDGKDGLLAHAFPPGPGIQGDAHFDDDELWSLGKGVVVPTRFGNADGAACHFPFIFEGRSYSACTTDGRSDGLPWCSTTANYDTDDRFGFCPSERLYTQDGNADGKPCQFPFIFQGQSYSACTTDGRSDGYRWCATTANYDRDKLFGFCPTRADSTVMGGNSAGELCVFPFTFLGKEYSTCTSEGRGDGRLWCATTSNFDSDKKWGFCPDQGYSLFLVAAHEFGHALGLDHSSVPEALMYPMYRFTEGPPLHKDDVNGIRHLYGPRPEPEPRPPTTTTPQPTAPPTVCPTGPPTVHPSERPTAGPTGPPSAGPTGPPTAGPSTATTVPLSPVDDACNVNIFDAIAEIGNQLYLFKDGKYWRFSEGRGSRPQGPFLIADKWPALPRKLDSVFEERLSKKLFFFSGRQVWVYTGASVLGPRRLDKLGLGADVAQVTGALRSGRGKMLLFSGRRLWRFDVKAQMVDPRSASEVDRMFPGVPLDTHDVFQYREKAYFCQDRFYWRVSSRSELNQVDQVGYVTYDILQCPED
Description: as §1
as §2, with “MMP-9” for “MMP-2”, “#BML-AK410)” for “#BML-AK408)”, “screen” for “screen MMP-2”, “inhibitors of matrix metalloproteinase-9” for “inhibitors”
as §3, §4, §5

[3] = biological target: T3, MMP13 (Homo sapiens, UniProt P45452); assay: MMP-13 colorimetric inhibition assay (Enzo kit); details: colorimetric thiopeptide substrate, absorbance 415 nm; read-out: MMP13 IC50 class
T3 construct: purchased Enzo Life Sciences, Inc. BML-AK412
Description: as §1
as §2, with “MMP-13” for “MMP-2”, “#BML-AK412)” for “#BML-AK408)”, “screen” for “screen MMP-2”, “inhibitors of matrix metalloproteinase-13” for “inhibitors”
as §3, §4, §5

T1 sequence (P08253 110-452 limits assumed): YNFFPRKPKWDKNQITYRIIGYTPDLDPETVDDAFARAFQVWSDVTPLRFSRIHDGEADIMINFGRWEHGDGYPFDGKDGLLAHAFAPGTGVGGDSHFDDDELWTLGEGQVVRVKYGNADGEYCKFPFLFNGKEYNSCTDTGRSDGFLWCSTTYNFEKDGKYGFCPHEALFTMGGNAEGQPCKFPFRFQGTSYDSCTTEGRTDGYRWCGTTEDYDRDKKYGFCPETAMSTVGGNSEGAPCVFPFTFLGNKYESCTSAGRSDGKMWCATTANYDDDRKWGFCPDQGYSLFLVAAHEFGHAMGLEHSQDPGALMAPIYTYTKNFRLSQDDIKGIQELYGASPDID

| SMILES | IC50 [1] | IC50 [2] | IC50 [3] |
| --- | --- | --- | --- |
| COCCOC(=O)N1CC2CCC(C(=O)NO)(C1)N2S(=O)(=O)c1cc(F)c(Oc2ccc(Cl)cc2)c(F)c1 (centres unmarked) [Example 1, 2-methoxyethyl 8-((4-(4-chlorophenoxy)-3,5-difluorophenyl)sulfonyl)-1-(hydroxycarbamoyl)-3,8-diazabicyclo[3.2.1]octane-3-carboxylate] | 50 to 1000 nM | – | – |
| COCCOC(=O)N1CC2CCC(C(=O)NO)(C1)N2S(=O)(=O)c1cc(F)c(Oc2ccc(F)cc2)c(F)c1 (centres unmarked) [Example 2, 2-Methoxyethyl 8-((3,5-difluoro-4-(4-fluorophenoxy)phenyl)sulfonyl)-1-(hydroxy-carbamoyl)-3,8-diazabicyclo[3.2.1]octane-3-carboxylate] | 50 to 1000 nM | 50 to 1000 nM | 1000 to 10000 nM |
| O=C(c1ccncc1)N1CC2CCC(C(=O)NO)(C1)N2S(=O)(=O)c1cc(F)c(Oc2ccc(Cl)cc2)c(F)c1 (centres unmarked) [Example 3, 8-((4-(4-chlorophenoxy)-3,5-difluorophenyl)sulfonyl)-N-hydroxy-3-isonicotinoyl-3,8-diazabicyclo[3.2.1]octane-1-carboxamide] | 50 to 1000 nM | 1000 to 10000 nM | – |
| O=C(CN1CCOCC1)N1CC2CCC(C(=O)NO)(C1)N2S(=O)(=O)c1cc(F)c(Oc2ccc(Cl)cc2)c(F)c1 (centres unmarked) [Example 4, 8-((4-(4-chlorophenoxy)-3,5-difluorophenyl)sulfonyl)-N-hydroxy-3-(2-morpholinoacetyl)-3,8-diazabicyclo[3.2.1]octane-1-carboxamide] | 50 to 1000 nM | 50 to 1000 nM | 1000 to 10000 nM |
| O=C(N1CCCCC1)N1CC2CCC(C(=O)NO)(C1)N2S(=O)(=O)c1cc(F)c(Oc2ccc(Cl)cc2)c(F)c1 (centres unmarked) [Example 6, 8-((4-(4-chlorophenoxy)-3,5-difluorophenyl)sulfonyl)-N-hydroxy-3-(piperidine-1-carbonyl)-3,8-diazabicyclo[3.2.1]octane-1-carboxamide] | 50 to 1000 nM | 50 to 1000 nM | – |
| O=C(CN1CCCCC1)N1CC2CCC(C(=O)NO)(C1)N2S(=O)(=O)c1cc(F)c(Oc2ccc(Cl)cc2)c(F)c1 (centres unmarked) [Example 7, 8-((4-(4-chlorophenoxy)-3,5-difluorophenyl)sulfonyl)-N-hydroxy-3-(2-(piperidin-1-yl)acetyl)-3,8-diazabicyclo[3.2.1]octane-1-carboxamide] | 50 to 1000 nM | 1000 to 10000 nM | 1000 to 10000 nM |
| COCCOC(=O)N1CC2CCC(C(=O)NO)(C1)N2S(=O)(=O)c1ccc(-c2cccc(F)c2)nc1 (centres unmarked) [Example 9, 2-methoxyethyl 8-((6-(3-fluorophenyl)pyridin-3-yl)sulfonyl)-1-(hydroxycarbamoyl)-3,8-diazabicyclo[3.2.1]octane-3-carboxylate] | 50 to 1000 nM | 1000 to 10000 nM | 1000 to 10000 nM |
| COCCOC(=O)N1CC2CCC(C(=O)NO)(C1)N2S(=O)(=O)c1ccc(OCc2ccc(F)cc2Cl)cc1 (centres unmarked) [Example 15, 2-methoxyethyl 8-((4-((2-chloro-4-fluorobenzyl)oxy)phenyl)sulfonyl)-1-(hydroxycarbamoyl)-3,8-diazabicyclo[3.2.1]octane-3-carboxylate] | > 10000 nM | 1000 to 10000 nM | 1000 to 10000 nM |
| COCCOC(=O)N1CC2CCC(C(=O)NO)(C1)N2S(=O)(=O)c1ccc(NC(=O)c2ccc(OC)cc2)cc1 (centres unmarked) [Example 17, 2-methoxyethyl 1-(hydroxycarbamoyl)-8-((4-(4-methoxybenzamido)phenyl)sulfonyl)-3,8-diazabicyclo[3.2.1]octane-3-carboxylate] | 50 to 1000 nM | 50 to 1000 nM | 50 to 1000 nM |
| COCCOC(=O)N1CC2CCC(C(=O)NO)(C1)N2S(=O)(=O)c1ccc(Oc2ccc(C#N)cc2)nc1 (centres unmarked) [Example 18, 2-methoxyethyl 8-((6-(4-cyanophenoxy)pyridin-3-yl)sulfonyl)-1-(hydroxycarbamoyl)-3,8-diazabicyclo[3.2.1]octane-3-carboxylate] | 50 to 1000 nM | 50 to 1000 nM | 50 to 1000 nM |
| O=C(Cc1ccncc1)N1CC2CCC(C(=O)NO)(C1)N2S(=O)(=O)c1cc(F)c(Oc2ccc(Cl)cc2)c(F)c1 (centres unmarked) [Example 23, 8-((4-(4-chlorophenoxy)-3,5-difluorophenyl)sulfonyl)-N-hydroxy-3-(2-(pyridin-4-yl)acetyl)-3,8-diazabicyclo[3.2.1]octane-1-carboxamide] | 50 to 1000 nM | 50 to 1000 nM | – |
| O=C(N1CCOCC1)N1CC2CCC(C(=O)NO)(C1)N2S(=O)(=O)c1cc(F)c(Oc2ccc(Cl)cc2)c(F)c1 (centres unmarked) [Example 24, 8-((4-(4-chlorophenoxy)-3,5-difluorophenyl)sulfonyl)-N-hydroxy-3-(morpholine-4-carbonyl)-3,8-diazabicyclo[3.2.1]octane-1-carboxamide] | 50 to 1000 nM | 50 to 1000 nM | – |
| O=C(CCN1CCOCC1)N1CC2CCC(C(=O)NO)(C1)N2S(=O)(=O)c1cc(F)c(Oc2ccc(Cl)cc2)c(F)c1 (centres unmarked) [Example 25, 8-((4-(4-chlorophenoxy)-3,5-difluorophenyl)sulfonyl)-N-hydroxy-3-(3-morpholinopropanoyl)-3,8-diazabicyclo[3.2.1]octane-1-carboxamide] | 50 to 1000 nM | 50 to 1000 nM | – |
| COCCOC(=O)N1C[C@H]2CC[C@@](C(=O)NO)(C1)N2S(=O)(=O)c1ccc(Oc2ccc(F)cc2)c(F)c1 [Example 30, 2-methoxyethyl (1S,5R)-8-((3-fluoro-4-(4-fluorophenoxy)phenyl)sulfonyl)-1-(hydroxycarbamoyl)-3,8-diazabicyclo[3.2.1]octane-3-carboxylate] | 50 to 1000 nM | 50 to 1000 nM | – |
| COCCOC(=O)N1C[C@@H]2CC[C@](C(=O)NO)(C1)N2S(=O)(=O)c1ccc(Oc2ccc(F)cc2)c(F)c1 [Example 31, 2-methoxyethyl (1R,5S)-8-((3-fluoro-4-(4-fluorophenoxy)phenyl)sulfonyl)-1-(hydroxycarbamoyl)-3,8-diazabicyclo[3.2.1]octane-3-carboxylate] | < 50 nM | 50 to 1000 nM | – |
| O=C(NO)C12CCC(CNC1)N2S(=O)(=O)c1cc(F)c(Oc2ccc(Cl)cc2)c(F)c1 (centres unmarked) [Example 32, 8-((4-(4-chlorophenoxy)-3,5-difluorophenyl)sulfonyl)-N-hydroxy-3,8-diazabicyclo[3.2.1]octane-1-carboxamide] | 50 to 1000 nM | 1000 to 10000 nM | – |
| COCCOC(=O)N1CC2CCC(C(=O)NO)(C1)N2C(=O)c1cc(F)c(Oc2ccc(Cl)cc2)c(F)c1 (centres unmarked) [Example 34, 2-methoxyethyl 8-(4-(4-chlorophenoxy)-3,5-difluorobenzoyl)-1-(hydroxycarbamoyl)-3,8-diazabicyclo[3.2.1]octane-3-carboxylate] | > 10000 nM | > 10000 nM | > 10000 nM |

— US20250026761A1, “DIAZABICYCLOOCTANE DERIVATIVES USEFUL AS MATRIX METALLOPROTEINASE INHIBITORS” (VASA THERAPEUTICS SPÓLKA Z OGRANICZONA ODPOWIEDZIALNOSCIA, priority 2021, published 2025)
